Results: US20100190982A1, “PROCESS FOR THE PREPARATION OF LAMIVUDINE FORM I” (priority 2007, published 2010)
Like-named read-outs stand apart in the source and are kept apart here.

Columns and labels:
[1] = as stated in U.S. Pat. No. 5,905,082, cited from earlier work
[2] = Storage of Form I crystals, polymorphic change; assay type: physicochemical
Procedure: (§1) Therefore our endeavour was to prepare Lamivudine polymorph Form I, which is storage stable and remains unchanged during preparation of solid doses form. […] (under reduced pressure). Data has been generated up to 72 h drying at 80° C.

[3] = Grinding / milling of Form I crystals, polymorphic change; assay type: physicochemical
Procedure: as §1

[4] = Drying of Form I crystals at 80° C. (under reduced pressure), polymorphic change; assay type: physicochemical; details: for conversion of Form I to Form II on drying: drying at 80° C. (under reduced pressure)
Procedure: as §1
In the present invention, the Lamivudine polymorphic Form I obtained is 100% pure.

[5] = Stability testing at 60° C.; assay type: physicochemical; details: two months

Row | conversion to Form II on storage [2] | conversion of Form I to Form II on drying [4] | chemical degradation in stability testing [5] | polymorphic change in stability testing [5] | polymorphic change on drying ([4]; up to 72 h drying at 80° C. (under reduced pressure)) | Structure (SMILES) | relative stability of polymorphic form ([1]; listed as Form I crystals) | conversion of Form I to Form II in pharmaceutical unit operations ([1]; milling/grinding) | conversion to Form II when milled/grinded ([3]; milled/grinded) | relative stability of polymorphic form [1] | change in polymorphic form on grinding ([3]; grinded neat for 5-15 min at 20-30° C.) | conversion of Form I to Form II on drying ([4]; listed as Lamivudine polymorphic Form I)
1 | partially converted into Form II | partially converted into Form II | – | – | – | Nc1ccn([C@@H]2CS[C@H](CO)O2)c(=O)n1 [Lamivudine polymorphic Form I prepared by crystallisation fr] | less stable | may cause conversion of Form I to Form II | partial conversion to Form II was observed | – | – | –
2 | – | – | – | – | – | Nc1ccn([C@@H]2CS[C@H](CO)O2)c(=O)n1 [Form II, Lamivudine] | – | – | – | more stable polymorphic form | – | –
3 | – | do not convert to Form II | neither chemical degradation | nor polymorphic change was observed | no polymorphic change has been observed | Nc1ccn([C@@H]2CS[C@H](CO)O2)c(=O)n1 [Lamivudine Form I crystals prepared by the process of instan] | – | – | – | – | no change in polymorphic form has been observed | does not change into other polymorphic form
